The values that follow come from US4668770A, “Renin inhibitory tripeptides” (Merck & Co., Inc., priority 1984, dated 1987).

Non-standard residues stand in square brackets, D forms with d. Residues, ends and D or L forms follow the SMILES beside them. *: point of attachment. Sta = CC(C)C[C@H](N)[C@@H](O)CC(=O)O; Phenoxyacetyl = O=C(COc1ccccc1)*; Boc = CC(C)(C)OC(=O)*

The target in one assay is hog kidney renin (Sus scrofa, UniProt A0A287APG1). In words: Hog renin inhibition. Type of assay: biochemical. The note with it: for IC50: pH 7.3, concentration producing 50% inhibition of renin activity, read-out: I50. The protocol:
An assay was carried out in order to determine the inhibitory potency of the peptides of the present invention. The assay measured the inhibition of hog kidney renin, and was in accordance with the procedure described in Rich et al., J. Med. Chem. 23: 27, 1980, except that a pH of 7.3 was used. The results of the assay, illustrated in the table below, are expressed as I50 values, which refers to the concentration of peptide inhibitor necessary to produce 50% inhibition of renin activity. This I50 value is obtained typically by plotting data from four inhibitor concentrations.

The next assay concerns the target T1, human kidney renin (Homo sapiens, UniProt P00797).
T1 construct: human kidney renin purified as described in Bangham; from tissue; host or cells: human kidney
T1 sequence (P00797 67-406): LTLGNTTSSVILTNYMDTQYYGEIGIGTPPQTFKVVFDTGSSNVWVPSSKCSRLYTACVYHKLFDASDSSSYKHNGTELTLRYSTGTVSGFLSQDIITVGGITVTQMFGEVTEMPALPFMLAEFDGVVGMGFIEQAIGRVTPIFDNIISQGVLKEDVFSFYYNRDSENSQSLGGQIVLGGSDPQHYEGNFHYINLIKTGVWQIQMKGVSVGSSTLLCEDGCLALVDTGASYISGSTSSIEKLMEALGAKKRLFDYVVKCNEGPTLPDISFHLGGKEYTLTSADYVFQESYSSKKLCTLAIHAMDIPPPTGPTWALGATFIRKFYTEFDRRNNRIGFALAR
In words: Human renin inhibition. Type of assay: biochemical. The following applies: purified human kidney renin; dissociation constant of the inhibited enzyme-inhibitor complex. How it is done: An assay was carried out in order to determine the inhibitory potency of the peptides of the present invention. The assay measured the inhibition of human kidney renin purified as described in Bangham, D. R., Robertson, I., Robinson, J. I. S., Robinson, C. J., and Tree, M., Clinical Science and Molecular Medicine, 48 (Supp. 2): 136s-159s (1975), and further purified by affinity chromatography on pepstatin-aminohexyl-Sepharase as described in Poe, M., Wu., J. K., Florance, J. R., Radkey, J. A., Bennett, C. D., and Hoagsteen, K., J. Biol. Chem. (1982, in press). The assay was also in accordance with Poe et al. cited above. Results are expressed as KI values, which refer to the dissociation constant of the inhibited enzyme--inhibitor complex. This KI value was obtained as described above. […]

Sequence of hog kidney renin (A0A287APG1 67-407): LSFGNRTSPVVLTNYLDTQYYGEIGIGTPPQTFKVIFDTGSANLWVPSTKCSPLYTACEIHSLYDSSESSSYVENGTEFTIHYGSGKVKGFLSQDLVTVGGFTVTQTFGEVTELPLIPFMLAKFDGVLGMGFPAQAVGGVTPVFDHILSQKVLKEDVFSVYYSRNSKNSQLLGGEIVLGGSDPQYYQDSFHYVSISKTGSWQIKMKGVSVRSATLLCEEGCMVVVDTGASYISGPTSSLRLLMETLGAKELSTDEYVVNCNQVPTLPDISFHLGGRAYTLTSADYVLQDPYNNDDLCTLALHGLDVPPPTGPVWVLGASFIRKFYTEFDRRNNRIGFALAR

As to `CC(C)C[C@H](NC(=O)C[C@H](O)[C@H](CC(C)C)NC(=O)[C@H](Cc1c[nH]cn1)NC(=O)C(C)Cc1ccccc1)C(=O)NCc1ccccc1` (single isomer, unassigned) [2-methyl-3-phenylpropionyl-His--Sta--Leu--benzylamide ("A" Isomer), 2-methyl-3-phenylpropionyl-His-Sta-Leu-benzylamide], the inhibition at 1.3 µM at hog kidney renin (pH 7.3, at 1.3 × 10^-6 M, read-out: inhibition of renin activity at 1.3 × 10^-6 (printed in the I50 column)) stood at 15%.

With `CC(C)C[C@H](NC(=O)C[C@H](O)[C@H](CC(C)C)NC(=O)[C@H](Cc1c[nH]cn1)NC(=O)C(C)Cc1ccccc1)C(=O)NCc1ccccc1` (single isomer, unassigned) [2-methyl-3-phenylpropionyl-His--Sta--Leu--benzylamide ("B" Isomer), 2-methyl-3-phenylpropionyl-His-Sta-Leu-benzylamide], the IC50 on hog kidney renin turned out to be 0.94 µM.

Take `CC(C)C[C@H](NC(=O)C[C@H](O)[C@H](CC(C)C)NC(=O)[C@H](Cc1c[nH]cn1)NC(=O)C(Cc1ccccc1)c1ccccc1)C(=O)NCc1ccccc1` (stereo partly drawn) [2,3-diphenylpropionyl-His-Sta-Leu-benzylamide]: the IC50 on hog kidney renin came to 2.2 µM. Moreover, on human kidney renin, the Ki was 0.9 µM.

Take `CC(C)CC=CC(Cc1ccccc1)C(=O)N[C@@H](Cc1c[nH]cn1)C(=O)N[C@@H](CC(C)C)[C@@H](O)CC(=O)N[C@@H](CC(C)C)C(=O)NCc1ccccc1` (stereo partly drawn) [2-(4,4-dimethyl-1-butenyl)-3-phenylpropionyl-His-Sta-Leu-benzylamide]: on hog kidney renin, the IC50 is 0.61 µM.

On to `CC(C)C[C@H](NC(=O)C[C@H](O)[C@H](Cc1ccccc1)NC(=O)[C@H](Cc1c[nH]cn1)NC(=O)C(Cc1ccccc1)Cc1ccccc1)C(=O)NCc1ccccc1` [2-benzyl-3-phenylpropionyl-His-AHPPA-Leu-benzylamide], for which, at hog kidney renin, the IC50 is 0.0026 µM. For the same molecule, the affinity at human kidney renin, expressed as Ki, was 0.034 µM.

For `CC(C)C[C@H](NC(=O)C[C@H](O)[C@H](CC(C)C)NC(=O)[C@H](Cc1c[nH]cn1)NC(=O)C(Cc1ccccc1)Cc1ccccc1)C(=O)NCc1ccccc1` [2-benzyl-3-phenylpropionyl-His-Sta-Leu-benzylamide], the IC50 on hog kidney renin was determined as 0.15 µM. The molecule further registered a Ki on human kidney renin of 0.83 µM.

With `CCC(Cc1ccccc1)C(=O)N[C@@H](Cc1c[nH]cn1)C(=O)N[C@@H](CC(C)C)[C@@H](O)CC(=O)N[C@@H](CC(C)C)C(=O)NCc1ccccc1` (stereo partly drawn) [2-ethyl-3-phenylpropionyl-His-Sta-Leu-benzylamide], the IC50 on hog kidney renin was found to be 1.4 µM.

As for `CC(C)C[C@H](NC(=O)C[C@H](O)[C@H](CC(C)C)NC(=O)[C@H](Cc1c[nH]cn1)NC(=O)C(C=Cc1ccccc1)Cc1ccccc1)C(=O)NCc1ccccc1` (stereo partly drawn) [2-phenethenyl-3-phenylpropionyl-His-Sta-Leu-benzylamide], on hog kidney renin, the IC50 turned out to be 0.26 µM.

`CC(C)C[C@H](NC(=O)C[C@H](O)[C@H](CC(C)C)NC(=O)[C@H](Cc1c[nH]cn1)NC(=O)C(CCc1ccccc1)Cc1ccccc1)C(=O)NCc1ccccc1` (stereo partly drawn) [2-phenethyl-3-phenylpropionyl-His-Sta-Leu-benzylamide]: the IC50 at hog kidney renin was determined as 0.37 µM.

For the molecule `CC(C)C[C@H](NC(=O)C[C@H](O)[C@H](CC(C)C)NC(=O)[C@H](Cc1c[nH]cn1)NC(=O)C(CCCCc1ccccc1)Cc1ccccc1)C(=O)NCc1ccccc1` (stereo partly drawn) [2-phenylbutyl-3-phenylpropionyl-His-Sta-Leu-benzylamide], the IC50 on hog kidney renin was 0.52 µM. This molecule also showed a Ki at human kidney renin of 0.017 µM.

`CC(C)C[C@H](NC(=O)C[C@H](O)[C@H](Cc1ccccc1)NC(=O)[C@H](Cc1c[nH]cn1)NC(=O)C(CCCc1ccccc1)Cc1ccccc1)C(=O)NCc1ccccc1` (stereo partly drawn) [2-phenylpropyl-3-phenylpropionyl-His-AHPPA-Leu-benzylamide]: the IC50 at hog kidney renin stood at 0.0081 µM. For the same molecule, at human kidney renin, the Ki turned out to be 0.023 µM.

For the molecule `CC(C)C[C@H](NC(=O)C[C@H](O)[C@H](CC(C)C)NC(=O)[C@H](Cc1c[nH]cn1)NC(=O)C(CCCc1ccccc1)Cc1ccccc1)C(=O)NCc1ccccc1` (stereo partly drawn) [2-phenylpropyl-3-phenylpropionyl-His-Sta-Leu-benzylamide], the IC50 at hog kidney renin was 0.031 µM. In addition, the affinity on human kidney renin, expressed as Ki, was 0.097 µM.

For `CC(C)C[C@H](NC(=O)C[C@H](O)[C@H](Cc1ccccc1)NC(=O)[C@H](Cc1c[nH]cn1)NC(=O)CCc1ccccc1)C(=O)NCc1ccccc1` [3-phenylpropionyl-His-AHPPA-Leu-benzylamide], the IC50 on hog kidney renin turned out to be 0.035 µM. This molecule also yielded a Ki at human kidney renin of 0.071 µM.

As to `CC(C)C[C@H](NC(=O)C[C@H](O)[C@H](CC(C)C)NC(=O)[C@H](Cc1c[nH]cn1)NC(=O)CCc1ccccc1)C(=O)NCc1ccccc1` [3-phenylpropionyl-His-Sta-Leu-benzylamide], at hog kidney renin (pH 7.3, at 10^-7 M, read-out: inhibition of renin activity at 10^-7 (printed in the I50 column)), the inhibition at 0.1 µM amounted to 2%.

Turning to `CC(C)C[C@H](NC(=O)C[C@H](O)[C@H](CC(C)C)NC(=O)[C@H](Cc1c[nH]cn1)NC(=O)OC(C)(C)C)C(=O)N[C@@H](Cc1ccccc1)C(N)=O` [BOC--His--Sta--Leu--Phe--amide, BOC^1 -His-Sta-Leu-Phe-amide] (Boc-H[Sta]LF-NH2), the IC50 on hog kidney renin worked out at 400 µM.

Take `COC(=O)[C@H](Cc1ccccc1)NC(=O)[C@H](CC(C)C)NC(=O)C[C@H](O)[C@H](CC(C)C)NC(=O)[C@@H](N)Cc1c[nH]cn1` [His--Sta--Leu--Phe--methyl ester, His-Sta-Leu-Phe-methyl ester] (H-H[Sta]LF-OMe): the IC50 on hog kidney renin stood at 14 µM.

With `CC[C@H](C)[C@H](NC(=O)C[C@H](O)[C@H](CC1CCCCC1)NC(=O)[C@H](Cc1c[nH]cn1)NC(=O)COc1ccccc1)C(=O)NCc1ccccc1` [POA--His--ACHPA--Ile--benzylamide, POA-His-ACHPA-Ile-benzylamide], at hog kidney renin, the IC50 came out at 0.29 µM.

With `CC(C)C[C@H](NC(=O)C[C@H](O)[C@H](CC1CCCCC1)NC(=O)[C@H](Cc1c[nH]cn1)NC(=O)COc1ccccc1)C(=O)N[C@@H](Cc1ccccc1)C(N)=O` [POA--His--ACHPA--Leu--Phe--amide, POA-His-ACHPA^4 -Leu-Phe-amide], on hog kidney renin, the IC50 was determined as 0.51 µM. The molecule also had a Ki at human kidney renin of 0.0011 µM.

`CC(C)C[C@H](NC(=O)C[C@H](O)[C@H](Cc1ccccc1)NC(=O)[C@H](Cc1c[nH]cn1)NC(=O)COc1ccccc1)C(=O)NCc1ccccc1` [POA--His--AHPPA--Leu--benzylamide, Phenoxyacetyl-L-histidyl-(3S,4S)-AHPPA-L-leucyl-benzylamide]: the IC50 on hog kidney renin amounted to 0.02 µM. Further, the inhibition constant Ki at human kidney renin came out at 0.01 µM.

For `CC(C)C[C@H](NC(=O)C[C@H](O)[C@H](CC(C)C)NC(=O)[C@H](Cc1c[nH]cn1)NC(=O)COc1ccccc1)C(=O)N[C@@H](Cc1ccccc1)C(N)=O` [POA--His--Sta--Leu--Phe--amide, POA-His-Sta-Leu-Phe-amide] (Phenoxyacetyl-H[Sta]LF-NH2), the IC50 on hog kidney renin is 7.6 µM.

For the molecule `COC(=O)[C@H](Cc1ccccc1)NC(=O)[C@H](CC(C)C)NC(=O)C[C@H](O)[C@H](CC(C)C)NC(=O)[C@H](Cc1c[nH]cn1)NC(=O)COc1ccccc1` [POA--His--Sta--Leu--Phe--methyl ester, POA^2 -His-Sta-Leu-Phe-methyl ester] (Phenoxyacetyl-H[Sta]LF-OMe), on hog kidney renin, the IC50 came to 3.3 µM.

With `CC(C)C[C@H](NC(=O)[C@H](Cc1c[nH]cn1)NC(=O)COc1ccccc1)[C@@H](O)CC(=O)N[C@@H](Cc1ccccc1)C(=O)N[C@@H](Cc1ccccc1)C(N)=O` [POA--His--Sta--Phe--Phe--amide, POA-His-Sta-Phe-Phe-amide] (Phenoxyacetyl-H[Sta]FF-NH2), the IC50 at hog kidney renin is 40 µM.

For `CC[C@H](C)[C@H](NC(=O)C[C@H](O)[C@H](CC1CCCCC1)NC(=O)[C@H](Cc1c[nH]cn1)NC(=O)COc1ccccc1)C(=O)NCc1ccccn1` [POA-His-ACHPA-Ile-2-pyridylmethylamide], the IC50 at hog kidney renin is 1.4 µM.

On to “His-Sta-Ala-Phe-methyl ester [His--Sta--Ala--Phe--methyl ester]”, for which the “inhibition of renin activity at 10^-4 (printed in the I50 column)” value against hog kidney renin (pH 7.3, at 10^-4 M) is listed as 5%.
